Results on 13 compounds are retold here after ChEMBL document CHEMBL5380834, “Design, Synthesis, and Biological Evaluation of Androgen Receptor (AR) Antagonist-Heat Shock Protein 90 (Hsp90) Inhibitor Conjugates for Targeted Therapy of Castration-Resistant Prostate Cancer” (J Med Chem, 2023).

SMILES strings stand for the structures. Active and inactive are the calls of the source. The calls are words filed in the database; no cut-off is given here. Where only a bound is given, the exact number is not on record here.

Data set [1] has as its system CWR22R. Put plainly: Cytotoxicity against human 22Rv1 cells assessed as inhibition of cell growth incubated for 5 days in presence of AR agonist, R1881 by WST-1 assay. Type of data set: functional, cell-based. To be noted: 22Rv1, 120 h.
Data set [2] relates to LNCaP. The data set can be described thus: Cytotoxicity against AR-positive human LNCaP cells assessed as inhibition of cell growth incubated for 5 days in presence of AR agonist, R1881 in charcoal stripped serum by WST-1 assay. To be noted: 120 h. The data set is classed as functional, cell-based. (Tetrazolium assays rely on reduction of a dye to a coloured formazan, in cell work by metabolically active cells.)

The test system of data set [3] is Androgen receptor (Homo sapiens), P10275 [UNDEFINED MUTATION]. The data set can be described thus: Induction of AR-V7 degradation in human 22Rv1 cells at 100 nM by Western blot analysis. The data set is classed as cell-based. To be noted: time <= 48.0 hrs, TDE = time-dependent effect.
Androgen receptor (Homo sapiens), P10275 [UNDEFINED MUTATION], sequence (P10275 whole entry, looked up, stated change not applied): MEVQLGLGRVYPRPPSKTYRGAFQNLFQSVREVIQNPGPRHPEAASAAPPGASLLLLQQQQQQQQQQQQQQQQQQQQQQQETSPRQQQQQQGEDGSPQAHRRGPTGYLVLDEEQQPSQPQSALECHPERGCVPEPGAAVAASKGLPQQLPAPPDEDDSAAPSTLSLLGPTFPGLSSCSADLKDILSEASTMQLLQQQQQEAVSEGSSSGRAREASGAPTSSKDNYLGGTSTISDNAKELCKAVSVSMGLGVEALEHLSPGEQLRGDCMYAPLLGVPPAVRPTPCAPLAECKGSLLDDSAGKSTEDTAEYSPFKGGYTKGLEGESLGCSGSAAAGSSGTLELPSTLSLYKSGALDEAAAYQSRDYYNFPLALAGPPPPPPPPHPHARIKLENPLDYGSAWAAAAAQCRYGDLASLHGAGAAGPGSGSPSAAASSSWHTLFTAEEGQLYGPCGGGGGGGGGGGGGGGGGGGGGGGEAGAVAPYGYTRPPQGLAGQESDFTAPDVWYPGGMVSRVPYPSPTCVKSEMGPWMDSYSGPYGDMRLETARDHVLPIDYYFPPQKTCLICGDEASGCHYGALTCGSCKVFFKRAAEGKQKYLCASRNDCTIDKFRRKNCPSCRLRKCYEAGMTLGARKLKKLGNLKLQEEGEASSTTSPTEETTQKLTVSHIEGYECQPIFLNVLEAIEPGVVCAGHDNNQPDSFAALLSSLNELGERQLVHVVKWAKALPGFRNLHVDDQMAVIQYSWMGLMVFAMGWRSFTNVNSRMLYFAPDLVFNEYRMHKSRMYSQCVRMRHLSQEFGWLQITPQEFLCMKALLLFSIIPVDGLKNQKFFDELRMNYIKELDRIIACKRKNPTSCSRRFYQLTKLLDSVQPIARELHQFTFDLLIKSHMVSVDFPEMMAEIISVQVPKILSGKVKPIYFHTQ
Data set [4] relates to CWR22R. Put plainly: Antitumor activity against human 22Rv1 cells xenografted in BALB/c nude mouse assessed as reduction in tumor growth at 5 mg/kg, ip administered once every 4th day for 3 weeks. The data set is classed as functional, organism-based.
Data set [5] deals with CWR22R. The data set can be described thus: Antitumor activity against human 22Rv1 cells xenografted in BALB/c nude mouse assessed as reduction in tumor size at 5 mg/kg, ip administered once every 4th day for 3 weeks. Type of data set: functional, organism-based. (In xenograft studies the graft and the host belong to different species.)
Data set [6] is described as follows: Drug uptake in Lung of nude mouse xenografted with human 22Rv1 cells assessed as increase in fluorescence signal at 0.5 mg/kg, iv measured after 2 hrs by fluorescence imaging analysis. The data set is classed as ADME, organism-based, CWR22R. Conditions: in vivo.
Data set [7] is described as follows: Drug uptake in liver of nude mouse xenografted with human 22Rv1 cells assessed as increase in fluorescence signal at 0.5 mg/kg, iv measured after 2 hrs by fluorescence imaging analysis. Type of data set: ADME, organism-based, CWR22R. Conditions: in vivo.
The nature of data set [8]: Drug uptake in tumor of nude mouse xenografted with human 22Rv1 cells assessed as increase in fluorescence signal at 0.5 mg/kg, iv measured after 2 hrs by fluorescence imaging analysis. The data set is classed as ADME, organism-based, Neoplasm, CWR22R. To be noted: in vivo.
Data set [9] in a line: Drug uptake in HEK293T cells assessed as drug internalization at 1 uM incubated for 1 hr by DAPI staining based confocal microscopy. Type of data set: ADME, cell-based. To be noted: human, hek-293t.
Data set [10] in a line: Drug uptake in human 22Rv1 cells assessed as drug internalization at 1 uM incubated for 1 hr by DAPI staining based confocal microscopy. The data set is classed as ADME, cell-based. Conditions: cwr22r.
Data set [11] can be described thus: Drug uptake in kidney of nude mouse xenografted with human 22Rv1 cells assessed as increase in fluorescence signal at 0.5 mg/kg, iv measured after 2 hrs by fluorescence imaging analysis. To be noted: in vivo. Type of data set: ADME, organism-based, CWR22R.
The nature of data set [12]: Drug uptake in human RWPE-1 cells assessed as drug internalization at 1 uM incubated for 1 hr by DAPI staining based confocal microscopy. The data set is classed as ADME, cell-based. To be noted: rwpe-1, 1 h.
The test system of data set [13] is LNCaP. Put plainly: Induction of apoptosis in human LNCaP cells assessed as increase in PARP level at 1 uM measured after 48 hrs by Western blot analysis. Type of data set: functional, cell-based.
Data set [14] relates to LNCaP. Put plainly: Induction of apoptosis in human LNCaP cells assessed as increase in caspase-3 level at 1 uM measured after 48 hrs by Western blot analysis. The data set is classed as functional, cell-based. For orientation: In western blotting, separated proteins are transferred to a membrane and probed.
In data set [15] the test system is CWR22R. Put plainly: Induction of apoptosis in human 22Rv1 cells assessed as increase in caspase-3 level at 1 uM measured after 48 hrs by Western blot analysis. Type of data set: functional, cell-based.
The test system of data set [16] is CWR22R. Put plainly: Induction of apoptosis in human 22Rv1 cells assessed as increase in PARP level at 1 uM measured after 48 hrs by Western blot analysis. Type of data set: functional, cell-based.
The test system of data set [17] is CWR22R. The data set can be described thus: Antitumor activity against human 22Rv1 cells xenografted in BALB/c nude mouse assessed as downregulation of AR-FL level at 2.5 mg/kg, ip administered once every 4th day for 3 weeks. The data set is classed as functional, organism-based.
In data set [18] the test system is CWR22R. Put plainly: Antitumor activity against human 22Rv1 cells xenografted in BALB/c nude mouse assessed as downregulation of AR-V7 level at 2.5 mg/kg, ip administered once every 4th day for 3 weeks. The data set is classed as functional, organism-based.
Data set [19] relates to Androgen receptor (Homo sapiens), P10275 [UNDEFINED MUTATION]. Put plainly: Induction of AR-V7 degradation in human 22Rv1 cells measured upto 24 hrs by Western blot analysis. Type of data set: cell-based. To be noted: dose 1000.0 nM.
Data set [20] is described as follows: Drug uptake in human RWPE-1 cells assessed as increase in fluorescence at 1 uM incubated for 1 hr by DAPI staining based confocal microscopy. Type of data set: ADME, cell-based. To be noted: rwpe-1, 1 h.
Data set [21] in a line: Drug uptake in human HEK293T cells assessed as increase in fluorescence at 1 uM incubated for 1 hr by DAPI staining based confocal microscopy. Type of data set: ADME, cell-based. Conditions: hek-293t.
A short description of data set [22]: Drug uptake in human 22Rv1 cells assessed as increase in fluorescence at 1 uM incubated for 1 hr by DAPI staining based confocal microscopy. To be noted: cwr22r. Type of data set: ADME, cell-based.

Turning to `CC(C)c1cc(-c2n[nH]c(=O)n2-c2ccc(CN3CCN(C(=O)CCCCCNC(=O)c4ccc(C(=O)N[C@H]5CC[C@H](Oc6ccc(C#N)c(Cl)c6)CC5)cc4)CC3)cc2)c(O)cc1O`, the 50% inhibitory concentration (IC50) in the data set with CWR22R [1] and in the data set with LNCaP [2] was more than 1000 nM in each case.
Consider `COc1cc(OC)c(C(C)C)cc1-c1nn(C)c(=O)n1-c1ccc(CN2CCN(CC3CCN(CC4CCN(c5ncc(C(=O)N[C@H]6CC[C@H](Oc7ccc(C#N)c(Cl)c7)CC6)cn5)CC4)CC3)CC2)cc1`, for which the 50% inhibitory concentration (IC50) with CWR22R [1] and in the data set with LNCaP [2] was more than 1000 nM in each case. Besides, the Activity entry in data set [3] is “Tde”. In addition, the outcome in the data set on CWR22R [4] was Active.
As for `CC(C)c1cc(-c2n[nH]c(=O)n2-c2ccc(CN3CCN(CC4CCN(c5ccc(C(=O)N[C@H]6CC[C@H](Oc7ccc(C#N)c(Cl)c7)CC6)cn5)CC4)CC3)cc2)c(O)cc1O`, the IC50 with CWR22R [1] turned out to be 45.9 nM; in the data set on LNCaP [2], 110 nM.
In the case of `CC(C)c1cc(-c2n[nH]c(=O)n2-c2ccc(CN3CCN(CC4CCN(c5ncc(C(=O)N[C@H]6CC[C@H](Oc7ccc(C#N)c(Cl)c7)CC6)cn5)CC4)CC3)cc2)c(O)cc1O`, the IC50 with CWR22R [1] is 34.3 nM; in the data set on LNCaP [2] it was 73.8 nM. The result in the data set with CWR22R [5] was Active.
Regarding `CC(C)c1cc(-c2n[nH]c(=O)n2-c2ccc(CN3CCN(C(=O)CCCCCN4/C(=C/C=C/C=C/C5=[N+](C)c6ccccc6C5(C)C)C(C)(C)c5ccccc54)CC3)cc2)c(O)cc1O`, the Drug uptake entry was “Not Active” in [6]; “Not Active” in [7]; “Active” in data set [8]; “Not Active” in data set [9]; “Active” in data set [10]; “Not Active” in data set [11]. The Drug uptake entry in data set [12] is “Not Active”.
For `CC(C)c1cc(-c2n[nH]c(=O)n2-c2ccc(CN3CCN(C(=O)CCCCCCNC(=O)c4ccc(C(=O)N[C@H]5CC[C@H](Oc6ccc(C#N)c(Cl)c6)CC5)cc4)CC3)cc2)c(O)cc1O`, the half-maximal inhibitory concentration (IC50) in the data set with CWR22R [1] and with LNCaP [2] was more than 1000 nM throughout.
In the case of `N#Cc1ccc(O[C@H]2CC[C@H](NC(=O)c3cncnc3)CC2)cc1Cl`, the outcome in the data set on LNCaP [13], in the data set with LNCaP [14], in the data set on CWR22R [15] and in the data set with CWR22R [16] was inactive. The IC50 in the data set with LNCaP [2] was found to be 153 nM.
On to `CC(C)c1cc(-c2n[nH]c(=O)n2-c2ccc(CN3CCN(CC4CCN(c5ncc(C(=O)N[C@H]6C(C)(C)[C@H](Oc7ccc(C#N)c(Cl)c7)C6(C)C)cn5)CC4)CC3)cc2)c(O)cc1O`, for which the IC50 amounted to 212 nM with CWR22R [1] and 188 nM in the data set on LNCaP [2].
On to `N#Cc1ccc(O[C@H]2CC[C@H](NC(=O)c3cccnn3)CC2)cc1Cl`, for which the result with LNCaP [13], in the data set with LNCaP [14], with CWR22R [15] and in the data set on CWR22R [16] was inactive. For the same compound, the half-inhibitory concentration (IC50) in the data set on LNCaP [2] came to 336 nM.
On to `CC(C)c1cc(-c2n[nH]c(=O)n2-c2ccc(CN3CCN(C(=O)CCCNC(=O)c4ccc(C(=O)N[C@H]5CC[C@H](Oc6ccc(C#N)c(Cl)c6)CC5)cc4)CC3)cc2)c(O)cc1O`, for which the 50% inhibitory concentration (IC50) in the data set on CWR22R [1] and with LNCaP [2] was more than 1000 nM in each case.
Consider `CC(C)c1cc(-c2n[nH]c(=O)n2-c2ccc(CN3CCN(CC4CCN(C(=O)c5ccc(C(=O)N[C@H]6CC[C@H](Oc7ccc(C#N)c(Cl)c7)CC6)cc5)CC4)CC3)cc2)c(O)cc1O`, for which the IC50 in the data set with CWR22R [1] amounted to 65.5 nM; in the data set with LNCaP [2], 112 nM.
On the same counts, the results for `CC(C)c1cc(-c2n[nH]c(=O)n2-c2ccc(CN3CCN(CC4CCN(c5ncc(C(=O)N[C@H]6CC[C@H](Oc7ccc(C#N)c(C(F)(F)F)c7)CC6)cn5)CC4)CC3)cc2)c(O)cc1O` are 89.9 nM and 267 nM.
With `CC(C)c1cc(-c2n[nH]c(=O)n2-c2ccc(CN3CCN(C)CC3)cc2)c(O)cc1O`, the outcome in the data set on CWR22R [17] and in the data set on CWR22R [18] was inactive. Further, the Activity entry is “Dose-Dependent Effect” in [19] and “Tde” in [3]. In addition, the Drug uptake result in data set [20], in data set [21] and in [22] was “Not Active” throughout. For the same compound, the IC50 with LNCaP [2] is 107 nM.

As a reminder, the IC50 is the concentration that gives 50% inhibition.
